Experimental data as given in US20250269039A1, “THERAPEUTIC-OLIGONUCLEOTIDES ACTIVATED BY NUCLEASES” (priority 2020, published 2025).
In brackets after ≈: the same amount, converted by molar mass. Where two headings read alike, the source gives them in different places.

Tests used:
Format in all cases: cell-based, Staphylococcus aureus
[1] = tested on: S. aureus; experiment: Growth inhibition curves / MICs in S. aureus cultures (strain not named or summary over strains); details: Staphylococcus aureus, read-out: MIC values over all S. aureus strains tested
Description: Antimicrobial susceptibility testing. Minimal inhibitory concentrations (MIC) of all nucleoside analogues and TOUCANs against each bacteria strain were determined using broth microdilution method. A single colony obtained from overnight culture on tryptone soy agar with 5% defibrinated sheep blood was inoculated in cation-adjusted Mueller Hinton Broth and adjusted to 10^6 CFU/mL. TOUCANs were prepared in PBS+/+ (treatment) and serial dilutions were made in 96-well polystyrene round bottom microwell plates with 50 μL final volume for each concentration. PBS+/+ was used as untreated control. Next, 50 μL bacteria solutions were added to each well to a final bacteria concentration of 5×10^5 CFU/mL. Plates were incubated at 37° C. in Cytation 1 Cell Imaging Multimode Reader. Growth curves were obtained by measuring optical densities at 600 nm every 10 minutes for 18 hours using Cytation 1 Cell Imaging Multimode Reader. In addition, visual inspection of the plates was carried out after 18 hours and photographs were taken. MICs were defined as the lowest drug concentration in the microwell at which bacterial growth was not visible at the end of the incubation period. Besides MIC determination, specificity of TOUCAN 7mGe was also shown with subcultures on chromogenic media. For this purpose, 5 μL of different concentrations of each strain were inoculated onto CHROM agar Orientation Media (Becton Dickinson) and the bacterial growth of each bacteria strain tested was observed by naked eye after incubation at 37° C. for 24 hours. Finally, photographs of the chromogenic media were taken.

[2] = tested on: S. aureus ATCC 1768 (MRSA); experiment: Broth microdilution MIC and growth inhibition; details: for MIC: 18 h, TOUCAN as NA equivalent
Procedure, shortened: (§1)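 Broth microdilution in cation-adjusted Mueller Hinton broth, final inoculum 5×10^5 CFU/mL, compounds serially diluted in PBS+/+, 37° C. OD600 followed every 10 min for 18 h; MIC is the lowest concentration with no visible growth at 18 h.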

[3] = tested on: S. aureus ATCC 1747 (MRSA); experiment: Broth microdilution MIC and growth inhibition; details: for MIC: 18 h, TOUCAN as NA equivalent
Procedure, shortened: as §1

[4] = tested on: S. aureus NCTC 12493 (MRSA); experiment: Broth microdilution MIC and growth inhibition
Procedure, shortened: as §1

[5] = tested on: S. aureus ATCC 1761 (MRSA); experiment: Broth microdilution MIC and growth inhibition; details: for MIC: 18 h, TOUCAN as NA equivalent
Procedure, shortened: as §1

[6] = tested on: S. aureus ATCC 1717 (MRSA); experiment: Broth microdilution MIC and growth inhibition; details: for MIC: 18 h, TOUCAN as NA equivalent
Procedure, shortened: as §1

[7] = tested on: S. aureus ATCC 1707 (MRSA); experiment: Broth microdilution MIC and growth inhibition; details: for MIC: 18 h, TOUCAN as NA equivalent
Procedure, shortened: as §1

[8] = Staphylococcus aureus, read-out: MIC

## O=c1[nH]c(=O)n([C@H]2C[C@H](O)[C@@H](CO)O2)cc1F [Floxuridine, reference compound]
[1]
  MIC: 0.005 to 0.32 µg/mL (≈ 0.0203 to 1.3 µM)
[2]; [8]
  MIC: 0.04 µg/mL
[3]; [8]
  MIC: 0.005 µg/mL
[4]; Staphylococcus aureus, S. aureus NCTC 12493 (MRSA), 18 h, TOUCAN as NA equivalent, read-out: MIC
  MIC: 0.32 µg/mL
[4]; Staphylococcus aureus, Table 1, S. aureus NCTC 12493, read-out: MIC
  MIC: 0.32 µg/mL (≈ 1.3 µM)
[4]; Table 1, S. aureus NCTC 12493, mean ± SD, n = 3
  % Growth inhibition: 87.9 ± 0.4%
[5]; [8]
  MIC: 0.005 µg/mL
[6]; [8]
  MIC: 0.08 µg/mL
[7]; [8]
  MIC: 0.04 µg/mL

## mU-mU-mU-mU-T-T-Fx [TOUCAN 7mFx]
[2]
  TOUCAN MIC/NA MIC TOUCAN Efficacy Ratio (TER): 62.5
  MIC: 2.5 µg/mL
[2]; mean ± SD, n = 3
  TOUCAN % Growth inhibition: 93.2 ± 0.3%
[3]
  TOUCAN MIC/NA MIC TOUCAN Efficacy Ratio (TER): 500
  MIC: 2.5 µg/mL
[3]; mean ± SD, n = 3
  TOUCAN % Growth inhibition: 92.8 ± 0.7%
[4]; S. aureus NCTC 12493 (MRSA)
  TOUCAN MIC/NA MIC TOUCAN Efficacy Ratio (TER): 125
[4]; S. aureus NCTC 12493 (MRSA), 18 h, TOUCAN as NA equivalent
  MIC: 40 µg/mL
[4]; S. aureus NCTC 12493 (MRSA), mean ± SD, n = 3
  TOUCAN % Growth inhibition: 91.5 ± 0.00%
[5]
  TOUCAN MIC/NA MIC TOUCAN Efficacy Ratio (TER): 500
  MIC: 2.5 µg/mL
[5]; mean ± SD, n = 3
  TOUCAN % Growth inhibition: 93.9 ± 0.05%
[6]
  TOUCAN MIC/NA MIC TOUCAN Efficacy Ratio (TER): 125
  MIC: 10 µg/mL
[6]; mean ± SD, n = 3
  TOUCAN % Growth inhibition: 94.5 ± 0.04%
[7]
  TOUCAN MIC/NA MIC TOUCAN Efficacy Ratio (TER): 125
  MIC: 5 µg/mL
[7]; mean ± SD, n = 3
  TOUCAN % Growth inhibition: 94.6 ± 0.08%
